Laboratory results as given in ChEMBL document CHEMBL2010679, “Development of a new class of aromatase inhibitors: design, synthesis and inhibitory activity of 3-phenylchroman-4-one (isoflavanone) derivatives” (Bioorg Med Chem, 2012).
pIC50: −log10 of the molar value.

Experiments:
[1] = molecular target: T1, Aromatase (Homo sapiens, UniProt P11511); experiment: Inhibition of human recombinant aromatase expressed in baculovirus/insect cells using 7-methoxy-trifluoromethylcoumarin as substrate after 30 mins by fluorescence-based spectrophotometry; conditions: for pIC50: read-out: IC50
T1 sequence (P11511 whole entry): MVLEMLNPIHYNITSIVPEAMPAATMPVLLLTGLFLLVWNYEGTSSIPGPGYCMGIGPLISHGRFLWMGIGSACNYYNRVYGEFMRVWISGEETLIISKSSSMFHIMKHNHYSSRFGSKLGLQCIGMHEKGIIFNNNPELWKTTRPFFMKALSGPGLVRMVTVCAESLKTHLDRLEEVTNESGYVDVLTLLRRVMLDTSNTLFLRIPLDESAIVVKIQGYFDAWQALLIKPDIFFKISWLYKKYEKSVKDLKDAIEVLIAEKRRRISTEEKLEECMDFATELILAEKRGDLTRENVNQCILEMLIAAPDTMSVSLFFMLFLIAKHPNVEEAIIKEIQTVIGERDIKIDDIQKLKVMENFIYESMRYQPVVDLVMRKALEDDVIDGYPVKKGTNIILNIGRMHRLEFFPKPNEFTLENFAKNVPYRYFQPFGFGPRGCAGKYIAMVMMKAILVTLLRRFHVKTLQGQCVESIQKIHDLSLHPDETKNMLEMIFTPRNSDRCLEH

[2] = molecular target: T1, Aromatase

pIC50 [1]	Structure (SMILES)	also measured
4.70	Cc1cccc(C2COc3ccccc3C2=O)c1 (racemic)	–
4.74	Cc1ccc2c(c1)OCC(c1ccccc1)C2=O (racemic)	–
4.49	O=C1c2cc(F)ccc2OCC1c1ccccc1 (racemic)	–
4.39	Cc1ccc(C2COc3ccccc3C2=O)cc1 (racemic)	–
4.54	O=C1c2cc(Br)ccc2OCC1c1ccccc1 (racemic)	–
4.39	COc1ccc2c(c1)OCC(c1ccccc1)C2=O (racemic)	–
4.36	Cc1ccc2c(c1)C(=O)C(c1ccccc1)CO2 (racemic)	–

Continued, molecule first:

Structure (SMILES)	pIC50 [1]	also measured
COc1cccc(C2COc3ccccc3C2=O)c1 (racemic)	4.00	–
O=C1c2cc(Cl)ccc2OCC1c1ccccc1 (racemic)	5.29	–
COc1ccc(C2COc3ccccc3C2=O)cc1 (racemic)	4.62	–
O=C1c2ccccc2OCC1c1ccc(Oc2ccccc2)cc1 (racemic)	5.62	–
O=C1c2ccccc2OCC1c1ccc(-c2ccccc2)cc1 (racemic)	–	IC50 [1]: Not Active
O=C1c2ccccc2OCC1c1cccnc1 (racemic)	5.24	–
COc1cc(OC)cc(C2COc3ccccc3C2=O)c1 (racemic)	4.96	–
COc1ccc2c(c1)C(=O)C(c1ccccc1)CO2 (racemic)	6.59	–
COc1ccccc1C1COc2ccccc2C1=O (racemic)	4.01	–
O=C1c2ccccc2OCC1c1ccc(O)c(O)c1 (centres undefined)	–	pIC50 [2]: ≤ 3.70
O=C1c2ccccc2OCC1c1cc2ccccc2c2ccccc12 (racemic)	–	IC50 [1]: Not Active
O=C1c2ccccc2OC(O)C1c1ccccc1 (centres undefined)	–	pIC50 [2]: 3.77
O=C1c2ccccc2OCC1c1ccsc1 (racemic)	4.52	–
O=C1c2ccccc2OCC1c1ccc(O)cc1 (centres undefined)	–	pIC50 [2]: 3.80
O=C1c2ccccc2OCC1c1ccccc1 (racemic) [ISOFLAVANONE]	4.54	–
CC(C)(C)c1ccc2c(c1)C(=O)C(c1ccccc1)CO2 (racemic)	4.21	–
O=C1c2c(ccc3ccccc23)OCC1c1ccccc1 (racemic)	4.70	–
